This passage reports IC50 results from patent publication US20250179061A1 (SIRONAX LTD., priority 2022, published 2025).

This test concerns HT-29 cells. Nature of the test: HT-29 necroptosis cell viability assay (TNF-α/SMAC mimetic/zVAD-FMK, CellTiter-Glo). The class given is cell-based. The note with it: Homo sapiens. The method, then:
Compounds 1-702 of the disclosure were tested for biological activity, following the experimental procedures described below.
• Cell line: HT-29 (ATCC® HTB-38™) • Culture medium: McCOY's 5A, Gibco, Cat No. 16600-082 • FBS, Gibco, Cat No. 10099-141 C • Trypsin: Gibco, Cat No. 25200-056 • DMSO: Sigma, Cat No. 67-68-5, 1L • Assay plate: Corning #3903 • Compound dilution plate: Corning #3357 • Inducers: TNFα, GenScript, Cat No. Z01001-50, • SmacM, Cat. No., HY-15989, MedChemExpress (MCE) • Z_VAD FMK, TargetMol, T6013 • Cell Titer-Glo® Luminescent Cell Viability Assay Kit: Promega, Cat No. G7573 • EnVision: PerkinElmer, 2105-0010
• 1. HT-29 cells were checked every day to make sure that they were healthy and growing as expected. They were subjected to sub-culturing when they were approximately 80% confluent. • 2. The culture medium, McCOY's 5A medium (Gibco, Cat No. 16600-082) with 10% fetal bovine serum or FBS (Gibco, Cat No. 10099-141C), was pre-warmed in a 37° C. water bath for at least 30 min. • 3. When the cells had reached a desired level of confluency of 80% in a T75 flask, the medium was aspirated, and the cells were washed with warm phosphate buffered saline or PBS two times. • 4. 2-3 ml fresh warm trypsin (Gibco, Cat No. 25200-056) solution was added to the washed cells. The flask with the cells was transferred to a 37° C. incubator. • 5. After 5 minutes, the side of the flask was tapped, and the flask was examined under a microscope for detachment of the cells to the flask. If necessary, the cells were kept in the incubator for an additional 5-10 minutes, with occasional tapping, until lifting was complete. • 6. The trypsin reaction was neutralized by transferring 6-9 ml cell culture medium to sterile 15 ml conical tubes, and by centrifuging the cell culture at 300×g for 7 minutes to pellet the cells (supernatant decanted). • 7. The cells were resuspended in fresh cell culture medium and the cell counting was performed using a hemocytometer. • 8. 100 μl of the resuspended cell culture medium containing ˜5,000 cells were transferred into each well of the sterile 96-well cell culture plate (Corning 3903) and cultured overnight at 37° C. with 5% CO2.
• 1. All test compounds were dissolved in DMSO (Dimethyl sulfoxide) to create a 20 mM stock. • 2. 3 μl of 20 mM stock of each compound was mixed with 27 μl DMSO, and the compound solution was further diluted at a titration ratio of 1:3 (20 μl compound solution+40 μl DMSO) till the 10 points end. • 3. All culture medium was removed from assay plates filled with HT-29 cell cultures. The cells were then washed with 1 PBS, and resuspsended in fresh, FBS-free McCOY's 5A medium containing a cocktail of TNF-α (10 ng/ml), a SMAC mimetic compound (6 μM) and Z-VAD-fluoromethylketone or zVAD-FMK (10 μM) to stimulate the HT-29 cells to increase RIP1 kinase levels and necroptosis. • 4. 0.5 μL of the diluted compound solution was added to the corresponding 96-well assay plates. • 5. The assay plates were incubated for 20 hours at 37° C. with 5% CO2.
• 1. The CellTiter-Glo® Luminescent Cell Viability Assay was employed to detect the ATP levels of viable HT-29 cells. • 2. The CellTiter-Glo® buffer and the lyophilized substrate were equilibrated to room temperature prior to use. • 3. The CellTiter-Glo® substrate was resuspended with CellTiter-Glo® buffer, then mixed by gently vortexing to obtain a homogeneous solution. • 4. 20 μl of the enzyme/substrate mixture was transferred by multi-channel pipetting into 96-well assay plates. • 5. The assay plates were placed on an orbital shaker and the contents were shaken for 3 minutes to induce cell lysis. • 6. The assay plates were incubated at room temperature for 10 minutes to stabilize the luminescent signal. • 7. The luminescence signals were read and recorded with EnVision. • 8. The geometric mean IC50 values were calculated from 10 points response dose with duplicates. […]
Background: In ATP-based viability assays light output follows the ATP content of the culture.

Setting [1] is: HT-29, HT-29 necroptosis cell viability, IC50 class symbols, read-out: Activity.
Setting [2] is: HT-29, HT-29 necroptosis cell viability assay, class symbols for IC50, read-out: Activity.
[3] abbreviates: HT-29, HT-29 cells, necroptosis induced by TNF-α/SMAC mimetic/zVAD-FMK, CellTiter-Glo, read-out: Activity (IC50 class).
The mark [4] stands for this setting: HT-29 cells stimulated with TNF-α (10 ng/ml), SMAC mimetic (6 μM) and zVAD-FMK (10 μM), 20 hours, CellTiter-Glo ATP luminescence, geometric mean IC50 from 10 points, read-out: Activity.

Read-outs that look alike come from different tables or passages of the source.

With `COC1(C#N)CN(c2cc(Oc3ccc(-n4ncn(Cc5c(F)cccc5F)c4=O)cc3)c(Cl)cn2)C1` [Example 319, 1-(5-chloro-4-(4-(4-(2,6-difluorobenzyl)-5-oxo-4,5-dihydro-1H-1,2,4-triazol-1-yl)phenoxy)pyridin-2-yl)-3-methoxyazetidine-3-carbonitrile], the IC50 under setting [1] is < 100 nM. Regarding `Cc1nc(CC2COC2)sc1Oc1ccc(-n2ncn(Cc3c(F)cccc3F)c2=O)cc1` [Example 552, 4-(2,6-difluorobenzyl)-2-(4-((4-methyl-2-(oxetan-3-ylmethyl)thiazol-5-yl)oxy)phenyl)-2,4-dihydro-3H-1,2,4-triazol-3-one], the IC50 under setting [2] is < 100 nM. Regarding `Cc1ncc(C#N)n1Cc1ccc(-n2ncn(Cc3c(F)cccc3F)c2=O)cc1` [Example 185, 1-(4-(4-(2,6-difluorobenzyl)-5-oxo-4,5-dihydro-1H-1,2,4-triazol-1-yl)benzyl)-2-methyl-1H-imidazole-5-carbonitrile], under setting [2], the IC50 is 100 to 1000 nM. With `O=c1n(Cc2c(F)cccc2F)cnn1-c1ccc(Oc2ccnc(N3CC4(CCCCO4)C3)c2)cc1` [Example 334, 2-(4-((2-(5-oxa-2-azaspiro[3.5]nonan-2-yl)pyridin-4-yl)oxy)phenyl)-4-(2,6-difluorobenzyl)-2,4-dihydro-3H-1,2,4-triazol-3-one], the IC50 under setting [1] is < 100 nM. On to `Cc1nc(C=O)sc1Oc1ccc(-n2ncn(Cc3c(F)cccc3F)c2=O)cc1F` [Example 634, 5-[4-[4-[(2,6-difluorophenyl)methyl]-5-oxo-1,2,4-triazol-1-yl]-2-fluoro-phenoxy]-4-methyl-thiazole-2-carbaldehyde], for which the IC50 under setting [3] is < 100 nM. Turning to `Cc1cn(C)c(=O)n1Cc1ccc(-n2ncn(Cc3c(F)cccc3F)c2=O)cc1` [Example 214, 4-(2,6-difluorobenzyl)-2-(4-((3,5-dimethyl-2-oxo-2,3-dihydro-1H-imidazol-1-yl)methyl)phenyl)-2,4-dihydro-3H-1,2,4-triazol-3-one], the IC50 under setting [2] lay in the range of 1000 to 10000 nM. For `Cc1nc([C@H](C)O)sc1Oc1ccc(-n2nc3n(c2=O)[C@H](c2ccccc2)CC3)cc1F` (single isomer, unassigned) [Example 151], under setting [2], the IC50 was < 100 nM. For the molecule `N#Cc1ncc(Oc2ccc(-n3ncn(Cc4c(F)cccc4F)c3=O)cc2)s1` [Example 79, 5-(4-(4-(2,6-difluorobenzyl)-5-oxo-4,5-dihydro-1H-1,2,4-triazol-1-yl)phenoxy)thiazole-2-carbonitrile], the IC50 under setting [4] was < 100 nM. `COC1(C#N)CN(c2nc(C)c(Oc3ccc(-n4ncn(Cc5c(F)cccc5F)c4=O)cc3)s2)C1` [Example 55, 1-(5-(4-(4-(2,6-difluorobenzyl)-5-oxo-4,5-dihydro-1H-1,2,4-triazol-1-yl)phenoxy)-4-methylthiazol-2-yl)-3-methoxyazetidine-3-carbonitrile]: the IC50 under setting [4] is < 100 nM.

`Cc1nc(C2CCOCC2)sc1Oc1ccc(-n2ncn(Cc3c(F)cccc3F)c2=O)cc1` [Example 551, 4-(2,6-difluorobenzyl)-2-(4-((4-methyl-2-(tetrahydro-2H-pyran-4-yl)thiazol-5-yl)oxy)phenyl)-2,4-dihydro-3H-1,2,4-triazol-3-one]: under setting [2], the IC50 was < 100 nM.

Turning to `COC(=O)c1nc(C)c(Oc2ccc(-n3ncn(Cc4cc(F)ccc4F)c3=O)cc2F)s1` [Example 108, methyl 5-(4-(4-(2,5-difluorobenzyl)-5-oxo-4,5-dihydro-1H-1,2,4-triazol-1-yl)-2-fluorophenoxy)-4-methylthiazole-2-carboxylate], the IC50 under setting [4] was < 100 nM.

Regarding `CN(CC1CCOCC1)c1cc(Oc2ccc(-n3ncn(Cc4c(F)cccc4F)c3=O)cc2)ccn1` [Example 407, 4-[(2,6-difluorophenyl)methyl]-2-[4-({2-[methyl(oxan-4-ylmethyl)amino]pyridin-4-yl}oxy)phenyl]-1,2,4-triazol-3-one], the IC50 under setting [1] was in the range of 100 to 1000 nM. Still for that read-out and setting: as for `N#CC12CC(Nc3nccc(Oc4ccc(-n5ncn(Cc6c(F)cccc6F)c5=O)cc4)c3Cl)(C1)C2` [Example 248, 3-((3-chloro-4-(4-(4-(2,6-difluorobenzyl)-5-oxo-4,5-dihydro-1H-1,2,4-triazol-1-yl)phenoxy)pyridin-2-yl)amino)bicyclo[1.1.1]pentane-1-carbonitrile], the figure is < 100 nM. For `CC1(Nc2cc(Oc3ccc(-n4ncn(Cc5c(F)cccc5F)c4=O)cc3)ccn2)CC1` [Example 532, 4-(2,6-difluorobenzyl)-2-(4-((2-((1-methylcyclopropyl)amino)pyridin-4-yl)oxy)phenyl)-2,4-dihydro-3H-1,2,4-triazol-3-one], under setting [2], the IC50 is < 100 nM. As to `COc1cc(S(=O)(=O)c2ccc(-n3ncn(Cc4ccccc4)c3=O)cc2)ccn1` [Example 616, 4-benzyl-2-(4-((2-methoxypyridin-4-yl)sulfonyl)phenyl)-2,4-dihydro-3H-1,2,4-triazol-3-one], the IC50 under setting [2] was < 100 nM. On to `Cc1nc(C(N)=O)sc1Oc1ccc(-n2ncn(Cc3c(F)cccc3F)c2=O)cc1Cl` [Example 88, 5-(2-chloro-4-(4-(2,6-difluorobenzyl)-5-oxo-4,5-dihydro-1H-1,2,4-triazol-1-yl)phenoxy)-4-methylthiazole-2-carboxamide], for which the IC50 under setting [4] is < 100 nM.

Regarding `O=c1n(Cc2c(F)cccc2F)cnn1-c1ccc(Oc2ccnc(NC3(C(F)(F)F)CC3)c2F)cc1` [Example 362, 4-(2,6-difluorobenzyl)-2-(4-((3-fluoro-2-((1-(trifluoromethyl)cyclopropyl)amino)pyridin-4-yl)oxy)phenyl)-2,4-dihydro-3H-1,2,4-triazol-3-one], the IC50 under setting [1] is 1000 to 10000 nM. Turning to `Cc1nc(C2=CCNC2)sc1Oc1ccc(-n2ncn(Cc3c(F)cccc3F)c2=O)cc1` [Example 542, 4-(2,6-difluorobenzyl)-2-(4-((2-(2,5-dihydro-1H-pyrrol-3-yl)-4-methylthiazol-5-yl)oxy)phenyl)-2,4-dihydro-3H-1,2,4-triazol-3-one], the IC50 under setting [2] was < 100 nM. Turning to `Cc1nc(C(N)=O)sc1Oc1ncc(-n2ncn(Cc3c(F)cccc3F)c2=O)cc1F` [Example 643, 5-((5-(4-(2,6-difluorobenzyl)-5-oxo-4,5-dihydro-1H-1,2,4-triazol-1-yl)-3-fluoropyridin-2-yl)oxy)-4-methylthiazole-2-carboxamide], under setting [3], the IC50 was < 100 nM.

Consider `CC1(CN)CN(c2cc(Oc3ccc(-n4ncn(Cc5c(F)cccc5F)c4=O)cc3F)c(F)cn2)C1` [Example 555, 2-(4-((2-(3-(aminomethyl)-3-methylazetidin-1-yl)-5-fluoropyridin-4-yl)oxy)-3-fluorophenyl)-4-(2,6-difluorobenzyl)-2,4-dihydro-3H-1,2,4-triazol-3-one], for which the IC50 under setting [2] was < 100 nM. With `Cc1nc(C#N)sc1Oc1ccc(-n2ncn(Cc3c(F)cccc3F)c2=O)cc1Cl` [Example 86, 5-(2-chloro-4-(4-(2,6-difluorobenzyl)-5-oxo-4,5-dihydro-1H-1,2,4-triazol-1-yl)phenoxy)-4-methylthiazole-2-carbonitrile], under setting [4], the IC50 was < 100 nM. Consider `Cc1nc(C(=O)NC2CCOC2)sc1Oc1ccc(-n2nc3n(c2=O)[C@H](c2ccccc2)CC3)cc1F` (single isomer, unassigned) [Example 18], for which the IC50 under setting [4] was < 100 nM.
